According to patent publication US11447486B2, “2-amino-benzimidazole derivatives and their use as 5-lipoxygenase and/or prostaglandin E synthase inhibitors” (INSTITUT PASTEUR KOREA, priority 2014, dated 2022):

Tests used:
[1] = system: Rat basophilic leukemia (RBL) cells; test: LTB4 secretion assay in RBL (rat basophilic leukemia cells); assay type: cell-based; settings: Rattus norvegicus, RBL
Summary of the method: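 Cells seeded 2×10^4/well the day before, then pre-incubated 15 min at 37 °C in EMEM/0.5% FBS with compound (5 nM to 100 uM). Stimulation with 2.5 uM arachidonic acid plus 5 uM A23187 (final) for 10 min at 37 °C; LTB4 in supernatant quantified by EIA.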

Brown Norway rats = test: OVA-induced airway inflammation model in Brown Norway rats; assay type: in vivo, rat; settings: 25, 50, 100 mg/kg p.o. BID, Day 19-21
Text: The objective of this study is to determine the efficacy of compounds in the lungs of ovalbumin (OVA) induced in Brown Norway rats. As with most models of induced allergic asthma, animals are systemically sensitized to specific antigens and then, after a period of time, challenged with the same allergen administered via the airway. Ovalbumin had been used as the standard allergen to sensitize and challenge animals in this study.
Thirty (30) male Brown Norway rats were randomized into 5 groups on the basis of body weight. For sensitization, 1% OVA in PBS solution was mixed with alum solution (with volume ratio of 1:9). All rats in groups 1-5 were sensitized by i.p injection (1 mL/rat) of 1% OVA-alum sensitization solution on day 1, 2 and 3. At day 21, rats in groups 1-5 were challenged with 1% OVA in PBS solution with aerosolizing dosing system for 20 min.
Test compounds were administered by p.o. from days 19-21 of the study as per schedule below:
Group 1: sensitized-vehicle,
Group 2: reference drug dexamethasone, 0.3 mg/kg, p.o., Day 19-21, BID,
Group 3: compound 211, 25 mg/kg, p.o., Day 19-21, BID,
Group 4: compound 211, 50 mg/kg, p.o., Day 19-21, BID,
Group 5: compound 211, 100 mg/kg, p.o., Day 19-21, BID,
On day 22, bronchoalveolar lavage and lung tissues were harvested. Total cell number and differential cell counts in BALF, leukotriene B4 (LTB4) in BALF and lung tissue, histopathology of lung by H&E staining will be evaluated.

human 5-LOX = biological target: T1, human 5-LOX (Homo sapiens, UniProt P09917); test: 5-LOX enzyme activity, fluorescence method (5-HPETE, H2DCFDA); assay type: biochemical; settings: read-out: 5-LO (IC50)
T1 construct: purchased Cayman 60402; host or cells: insect cells (lysate)
T1 sequence (P09917 1-674): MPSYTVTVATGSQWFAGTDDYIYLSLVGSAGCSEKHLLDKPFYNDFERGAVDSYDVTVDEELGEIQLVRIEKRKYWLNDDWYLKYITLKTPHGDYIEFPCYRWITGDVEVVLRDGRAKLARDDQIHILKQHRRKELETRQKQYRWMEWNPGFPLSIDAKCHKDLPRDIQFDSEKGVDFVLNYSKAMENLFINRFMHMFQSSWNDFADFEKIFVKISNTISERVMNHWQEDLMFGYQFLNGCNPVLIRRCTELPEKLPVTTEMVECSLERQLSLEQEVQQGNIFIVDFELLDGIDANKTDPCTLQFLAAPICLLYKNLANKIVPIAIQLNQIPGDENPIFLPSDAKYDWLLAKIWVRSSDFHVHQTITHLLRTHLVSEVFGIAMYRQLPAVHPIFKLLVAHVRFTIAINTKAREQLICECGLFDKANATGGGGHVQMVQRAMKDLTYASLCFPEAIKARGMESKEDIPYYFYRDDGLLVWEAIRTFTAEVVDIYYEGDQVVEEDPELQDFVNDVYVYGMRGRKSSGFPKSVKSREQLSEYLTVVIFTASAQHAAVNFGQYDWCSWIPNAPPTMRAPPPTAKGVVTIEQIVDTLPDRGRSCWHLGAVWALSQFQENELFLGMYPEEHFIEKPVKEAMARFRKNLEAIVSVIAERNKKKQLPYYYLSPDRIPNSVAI
Summary of the method: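 Compound (0.5 nM to 10 uM) pre-incubated 5 min with enzyme; reaction started with ATP (100 uM final) and arachidonic acid (3 uM final). All steps at room temperature, fluorescence read-out.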

Rat whole blood (RWB) = test: LTB4 secretion assay in RWB (rat whole blood); assay type: cell-based; settings: Rattus norvegicus
Summary of the method: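 Heparinized blood from male Sprague Dawley rats (6-9 weeks) diluted 1:1 in RPMI, pre-incubated 15 min at 37 °C with compound (2.5 nM to 50 uM). Stimulated with 10 uM calcium ionophore A23187 for 10 min at 37 °C, stopped with ice-cold PBS; LTB4 in supernatant quantified by EIA.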

HeLa S3 cells = test: PGE2 inhibition assay (HTRF) in TNF-α stimulated HeLa S3 cells; assay type: cell-based; settings: Homo sapiens; PGE2, 10 uM compound, HeLa S3 stimulated with TNF-α
Procedure: Human epitheloid cervix carcinoma HeLa S3 cells (2×10^6cells/ml) were seeded with modified F-12K buffer medium pH 7.4 in tissue culture plate and incubated for overnight at 37° C. and 5% CO2. Then medium was changed into new medium contained 10 uM testing compounds or 0.1% DMSO and incubated overnight. After incubation, cells were stimulated with 30 nM TNF-α (Tumor necrosis factor-α) for 16 h. For determination of PGE2, the supernatant was measured by PGE2 HTRF (Homogeneous Time Resolved Fluorescence) assay kit Inhibition of PGE2 by compounds is calculated as a percentage of activity in the presence of drug versus the activity in the stimulator TNF-α.

[2] = biological target: T2, Human 5-lipoxygenase (5-LOX) (Homo sapiens, UniProt P09917); test: 5-LOX enzyme activity, LTB4 measurement by ELISA; assay type: biochemical; settings: ELISA method; read-out: 5LO (IC50)
T2 construct: purchased Cayman 60402; host or cells: insect cells
T2 sequence (P09917 1-674): T1 sequence (P09917 1-674)
Procedure: The activity of compounds against 5-LOX were determined by measuring LTB4 (leukotriene B4) levels and/or by a fluorescence method. Both approaches are outlined in more detail below;
LTB4 Measurement by ELISA:
Human 5-lipoxygenase (5-LOX) (Cayman, Cat #60402) produced in insect cells was pre-incubated with compounds for 5 min at RT in incubation buffer (50 mM Tris-Cl, pH 7.4, 2 mM CaCl2, 0.1 mM ATP, 2% DMSO). Compounds were tested in dose reponse from 0.5 nM to 10 uM. The enzymatic reaction was started by adding arachidonic acid to a final concentration of 3 uM. After 5 min of incubation at 25° C., the reaction was stopped by adding H2O2 to a final concentration of 1 mM. LTB4 levels were quantified using a LTB4 EIA kit (Cayman, Cat #520111) as instructed.

[3] = biological target: T3, Human recombinant cyclooxygenase-2 (Homo sapiens, UniProt P35354); test: COX-2 inhibition assay (EIA); assay type: biochemical; settings: for inhibition at 10 µM: COX-2, 10 uM compound; for inhibitory effect on cyclooxygenase-2 (COX-2): tested at 10 uM
T3 construct: host or cells: insect Sf21 cells
T3 sequence (P35354 18-604): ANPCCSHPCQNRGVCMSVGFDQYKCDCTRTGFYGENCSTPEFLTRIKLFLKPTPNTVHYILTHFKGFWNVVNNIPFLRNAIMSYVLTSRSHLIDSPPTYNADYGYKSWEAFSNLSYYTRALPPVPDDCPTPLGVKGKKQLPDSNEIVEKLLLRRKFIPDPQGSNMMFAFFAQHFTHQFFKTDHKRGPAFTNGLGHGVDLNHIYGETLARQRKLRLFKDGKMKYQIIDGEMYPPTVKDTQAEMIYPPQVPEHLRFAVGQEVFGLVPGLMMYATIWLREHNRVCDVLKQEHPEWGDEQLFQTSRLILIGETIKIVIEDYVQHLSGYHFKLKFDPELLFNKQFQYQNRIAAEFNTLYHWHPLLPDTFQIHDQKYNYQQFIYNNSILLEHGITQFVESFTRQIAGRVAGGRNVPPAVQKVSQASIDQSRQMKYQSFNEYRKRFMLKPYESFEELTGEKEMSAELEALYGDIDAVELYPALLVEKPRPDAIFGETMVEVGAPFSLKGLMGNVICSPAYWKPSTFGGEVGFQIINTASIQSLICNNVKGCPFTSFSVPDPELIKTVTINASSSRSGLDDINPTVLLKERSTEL
Procedure: Human recombinant cyclooxygenase-2 expressed in insect Sf21 cells was used. The testing compounds and reference compound (Rofecoxib) were dissolved in DMSO (Sigma, USA) and tested at 10 uM. Test samples were pre-incubated with 0.11 U enzyme in 100 mM modified Tris-HCl buffer pH 7.7 for 15 minutes at 37° C. The reactions were initiated by addition of 0.3 μM arachidonic acid for another 5-minute incubation period, then terminated by further addition of 1 N HCl. An aliquot was then combined with the EIA kit for spectrophotometric determination of the quantity of PGE2 formed. Inhibition % was determined by compared with relative amounts of PGE2 induced by arachidonic acid.

Compound | EC50 [1] | LTB4 in BALF and Lung (Brown Norway rats) | increase of inflammatory cells including total cell and eosinophils (Brown Norway rats; BALF) | inflammation cell infiltration (Brown Norway rats; lung histopathology) | IC50 (human 5-LOX) | EC50 (Rat whole blood (RWB)) | inhibition at 10 µM (HeLa S3 cells) | IC50 [2] | melting point | inhibition at 10 µM [3] | inhibitory effect on cyclooxygenase-2 (COX-2) [3]
Cn1c(NCc2ccc(Oc3ccc(Cl)cn3)cc2)nc2ccc(NC3COC3)cc21 [Compound 211] | < 10 µM | reduced | significantly reduced | significantly reduced | < 1 µM | < 10 µM | 40 to 70% | – | – | – | –
Nc1ccc2[nH]c(NCc3ccc(Oc4ccc(Cl)cc4)cn3)nc2c1 [Compound 14] | < 10 µM | – | – | – | < 1 µM | < 10 µM | – | < 1 µM | – | – | –
Nc1ccc2c(c1)nc(N)n2CCOc1ccc(OC(F)(F)F)cc1 [Compound 49] | < 10 µM | – | – | – | > 10 µM | 10 to 20 µM | – | 1 to 20 µM | – | – | –
CC(C)Nc1ccc2[nH]c(NCc3ccc(Oc4ccccc4)cc3)nc2c1 [Compound 95] | < 10 µM | – | – | – | < 1 µM | – | > 70% | – | > 137.5 °C | < 1% | do not have an inhibitory effect
Nc1ccc2[nH]c(NCc3ccc(-c4ccccc4)cc3)nc2c1 [Compound 90] | < 10 µM | – | – | – | < 1 µM | 10 to 20 µM | > 70% | – | > 200 °C | < 1% | do not have an inhibitory effect
Nc1ccc2nc(N)n(CCOc3ccc(OC(F)(F)F)cc3)c2c1 [Compound 48] | < 10 µM | – | – | – | < 1 µM | < 10 µM | – | 1 to 20 µM | – | – | –
